In this assay the target is T1, Met receptor (EGFR/Met chimeric cells, EMR) (Homo sapiens, UniProt P08581).
T1 construct: expressed in transfected cells; the other entry of the earlier key: EGFR (P00533, Epidermal growth factor receptor)
Description: Met Autophosphorylation Assay. Type of assay: biochemical. The protocol: Met Autophosphorylation Assay
This assay determines Met tyrosine kinase activity by analyzing Met protein tyrosine kinase levels on the Met receptor.
a. HNTG (5× stock solution): Dissolve 23.83 g HEPES and 43.83 g NaCl in about 350 ml dH2O. Adjust pH to 7.2 with HCl or NaOH, add 500 ml glycerol and 10 ml Triton X-100, mix, add dH2O to 1 L total volume. To make 1 L of 1× working solution add 200 ml 5× stock solution to 800 ml dH2O, check and adjust pH as necessary, store at 4° C.
b. PBS (Dulbecco's Phosphate-Buffered Saline), Gibco Cat. # 450-1300EB (1× solution).
c. Blocking Buffer: in 500 ml dH2O place 100 g BSA, 12.1 g Tris-pH7.5, 58.44 g NaCl and 10 ml Tween-20, dilute to 1 L total volume.
d. Kinase Buffer: To 500 ml dH2O add 12.1 g TRIS (pH 7.2), 58.4 g NaCl, 40.7 g MgCl2 and 1.9 g EGTA; bring to 1 L total volume with dH2O.
e. PMSF (Phenylmethylsulfonyl fluoride), Sigma Cat. # P-7626, to 435.5 mg, add 100% ethanol to 25 ml total volume, vortex.
f. ATP (Bacterial Source), Sigma Cat. # A-7699, store powder at −20° C.; to make up solution for use, dissolve 3.31 mg in 1 ml dH2O.
g. RC-20H HRPO Conjugated Anti-Phosphotyrosine, Transduction Laboratories Cat. # E120H.
h. Pierce 1-Step Turbo™ B-ELISA (3,3′,5,5′-tetramethylbenzidine, Pierce Cat. # 34022.
i. H2SO4, add 1 ml conc.(18 N) to 35 ml dH2O.
j. TRIS HCL, Fischer Cat. # BP152-5; to 121.14 g of material, add 600 ml MilliQ H2O, adjust pH to 7.5 (or 7.2) with HCl, bring volume to 1 L with MilliQ H2O.
k. NaCl, Fischer Cat. # S271-10, make up 5M solution.
m. Na3VO4, Fischer Cat. # S454-50, to 1.8 g material add 80 ml MilliQ H2O, adjust pH to 10.0 with HCl or NaOH, boil in microwave, cool, check pH, repeat procedure until pH stable at 10.0, add MilliQ H2O to 100 ml total volume, make 1 ml aliquots and store at −80° C.
n. MgCl2, Fischer Cat. # M33-500, make up 1M solution.
o. HEPES, Fischer Cat. # BP310-500, to 200 ml MilliQ H2O, add 59.6 g material, adjust pH to 7.5, bring volume to 250 ml total, sterile filter.
p. Albumin, Bovine (BSA), Sigma Cat. # A-4503, to 30 grams material add sterile distilled water to make total volume of 300 ml, store at 4° C.
q. TBST Buffer: to approx. 900 ml dH2O in a 1 L graduated cylinder add 6.057 g TRIS and 8.766 g NaCl, when dissolved, adjust pH to 7.2 with HCl, add 1.0 ml Triton X-100 and bring to 1 L total volume with dH2O.
r. Goat Affinity purified antibody Rabbit IgG (whole molecule), Cappel Cat. # 55641.
s. Anti h-Met (C-28) rabbit polyclonal IgG antibody, Santa Cruz Chemical Cat. # SC-161.
t. Transiently Transfected EGFR/Met chimeric cells (EMR) (Komada, et al., Oncogene, 8:2381-2390 (1993).
u. Sodium Carbonate Buffer, ([…], Fischer Cat. # S495) to 10.6 g material add 800 ml MilliQ H2O, when dissolved adjust pH to 9.6 with NaOH, bring up to 1 L total volume with MilliQ H2O, filter, store at 4° C.
All of the following steps are conducted at room temperature unless it is specifically indicated otherwise. All ELISA plate washing is by rinsing 4× with TBST.
This procedure can be performed the night before or immediately prior to the start of receptor capture.
1. Quick thaw lysates in a 37° C. waterbath with a swirling motion until the last crystals disappear.
2. Lyse cell pellet with 1× HNTG containing 1 mM PMSF. Use 3 ml of HNTG per 15 cm dish of cells. Add ½ the calculated HNTG volume, vortex the tube for 1 min., add the remaining amount of HNTG, vortex for another min.
3. Balance tubes, centrifuge at 10,000× g for 10 min at 4° C.
4. Pool supernatants, remove an aliquot for protein determination.
5. Quick freeze pooled sample in dry ice/ethanol bath. This step is performed regardless of whether lysate will be stored overnight or used immediately following protein determination.
6. Perform protein determination using standard bicinchoninic acid (BCA) method (BCA Assay Reagent Kit from Pierce Chemical Cat. # 23225).
1. Coat Corning 96 well ELISA plates with 5 μg per well Goat anti-Rabbit antibody in Carbonate Buffer for a total well volume of 50 μl. Store overnight at 4° C. […]

SMILES strings stand for the structures. Several values for one entry are separate records, joined by “and”; a condition that tells them apart may be missing. Equal entries are not always repeated.

The record followed here is patent publication US20020026053A1, “Novel 3-(substituted) -2- indolinones compounds and use thereof as inhibitors of protein kinase activity” (priority 1997, published 2002).

T1 sequence (P08581 with tags, fused parts or gaps): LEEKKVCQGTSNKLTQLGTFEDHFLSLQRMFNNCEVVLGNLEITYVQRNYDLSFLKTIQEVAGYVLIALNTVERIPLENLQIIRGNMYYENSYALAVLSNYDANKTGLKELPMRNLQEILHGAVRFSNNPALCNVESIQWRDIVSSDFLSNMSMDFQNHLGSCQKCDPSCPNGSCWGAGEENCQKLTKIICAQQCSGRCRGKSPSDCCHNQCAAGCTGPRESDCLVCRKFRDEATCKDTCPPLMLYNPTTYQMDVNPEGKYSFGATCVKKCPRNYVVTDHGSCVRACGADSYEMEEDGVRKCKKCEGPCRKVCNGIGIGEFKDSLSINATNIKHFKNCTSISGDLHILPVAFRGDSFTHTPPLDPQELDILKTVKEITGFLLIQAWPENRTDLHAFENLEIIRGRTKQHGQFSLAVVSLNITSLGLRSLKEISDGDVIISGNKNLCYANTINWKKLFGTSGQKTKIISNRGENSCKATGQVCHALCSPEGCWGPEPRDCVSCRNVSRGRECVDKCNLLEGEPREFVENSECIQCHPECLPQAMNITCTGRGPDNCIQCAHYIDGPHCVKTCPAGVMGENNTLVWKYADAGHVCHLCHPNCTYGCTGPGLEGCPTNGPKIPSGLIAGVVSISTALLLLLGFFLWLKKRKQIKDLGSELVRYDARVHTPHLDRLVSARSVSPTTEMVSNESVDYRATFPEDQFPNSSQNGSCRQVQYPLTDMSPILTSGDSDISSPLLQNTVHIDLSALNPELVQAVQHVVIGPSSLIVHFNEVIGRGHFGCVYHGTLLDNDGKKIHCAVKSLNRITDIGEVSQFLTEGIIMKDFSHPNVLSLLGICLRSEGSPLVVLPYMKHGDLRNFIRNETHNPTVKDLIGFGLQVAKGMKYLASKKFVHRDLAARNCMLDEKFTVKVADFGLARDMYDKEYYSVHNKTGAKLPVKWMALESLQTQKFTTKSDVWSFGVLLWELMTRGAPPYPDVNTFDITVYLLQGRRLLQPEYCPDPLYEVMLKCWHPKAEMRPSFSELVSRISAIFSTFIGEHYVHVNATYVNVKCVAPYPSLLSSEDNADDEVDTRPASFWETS

`Cc1c(Br)cc(Br)c2c1C(=Cc1ccc(F)cc1)C(=O)N2` [10717/H05]: the “Met Kinase % Inhibition (P.130)” value amounted to 16.3%.
The same measure for `Cc1c(Br)cc(Br)c2c1C(=Cc1c[nH]c3ccccc13)C(=O)N2` [10717/H06]: 30.5%.
The same measure for `Cc1ccc(C=C2C(=O)Nc3c(Br)cc(Br)c(C)c32)s1` [10717/H07]: 9.1%; for `Cc1c(Br)cc(Br)c2c1C(=Cc1ccc(Br)cc1)C(=O)N2` [10717/H08]: 23.0%.
As to `Cc1c(Br)cc(Br)c2c1C(=Cc1ccc[nH]1)C(=O)N2` [10717/H09], the “Met Kinase % Inhibition (P.130)” value turned out to be 8.8%.
The same measure for `COc1cccc(O)c1C=C1C(=O)Nc2c(Br)cc(Br)c(C)c21` [10717/H10]: 52.3%; for `Cc1[nH]c(C=C2C(=O)Nc3c(Br)cc(Br)c(C)c32)c(Br)c1Br` [10717/H11]: 58.2%; for `Cc1c(Br)cc(Br)c2c1C(=Cc1ccc(Br)o1)C(=O)N2` [10726/H05]: 80.2%.
With `Cc1cn(C)cc1C=C1C(=O)Nc2c(Br)cc(Br)c(C)c21` [10726/H06], the “Met Kinase % Inhibition (P.130)” value worked out at 35.1%.
Take `Cc1c(Br)cc(Br)c2c1C(=Cc1cc(O)c3c(c1O)CCCC3)C(=O)N2` [10726/H07]: the “Met Kinase % Inhibition (P.130)” value was 80.9%.
As to `Cc1c(Br)cc(Br)c2c1C(=C1C(=O)Nc3ccc(F)cc31)C(=O)N2` [10726/H08], the “Met Kinase % Inhibition (P.130)” value was 71.2%.
On to `Cc1c(Br)cc(Br)c2c1C(=C1C(=O)Nc3ccccc31)C(=O)N2` [10726/H09], for which the “Met Kinase % Inhibition (P.130)” value is reported as 68.1%.
The same measure for `CCc1ccc(C=C2C(=O)Nc3c(Br)cc(Br)c(C)c32)s1` [10726/H10]: 45.7%; for `COc1ccc(C=C2C(=O)Nc3c(Br)cc(Br)c(C)c32)cc1` [10726/H11]: 40.8%; for `CCN(CC)c1ccc(C=C2C(=O)Nc3c(Br)cc(Br)c(C)c32)cc1` [10727/H02]: 55.5%.
`CCc1cc(CC)c(C=C2C(=O)Nc3c(Br)cc(Br)c(C)c32)[nH]1` [10727/H03]: the “Met Kinase % Inhibition (P.130)” value is 49.2%.
Turning to `Cc1c(Br)cc(Br)c2c1C(=Cc1cc(Cl)cc(Br)c1O)C(=O)N2` [10727/H04], the “Met Kinase % Inhibition (P.130)” value came out at 81.7%.
As to `Cc1c(Br)cc(Br)c2c1C(=Cc1ccccc1Sc1ccc(Cl)cc1)C(=O)N2` [10727/H05], the “Met Kinase % Inhibition (P.130)” value came out at 20.6%.
Turning to `Cc1c(Br)cc(Br)c2c1C(=Cc1cc3c(cc1Cl)OCO3)C(=O)N2` [10727/H06], the “Met Kinase % Inhibition (P.130)” value was found to be 5.2%.
The result for `Cc1c(Br)cc(Br)c2c1C(=Cc1coc3ccccc3c1=O)C(=O)N2` [10727/H07] reads 26.8%; that for `Cc1c(Br)cc(Br)c2c1C(=Cc1cccc(C#N)c1)C(=O)N2` [10727/H08], 12.3%; that for `Cc1c(Br)cc(Br)c2c1C(=Cc1ccc(C#N)cc1)C(=O)N2` [10727/H09], 31.1%.
On to `Cc1c(Br)cc(Br)c2c1C(=Cc1cc(O)ccc1O)C(=O)N2` [10727/H10], for which the “Met Kinase % Inhibition (P.130)” value worked out at 89.7%.
For the molecule `COc1cccc(C=C2C(=O)Nc3c(Br)cc(Br)c(C)c32)c1OC` [10727/H11], the “Met Kinase % Inhibition (P.130)” value worked out at 17.9%.
The result for `COc1ccc(OC)c(C=C2C(=O)Nc3c(Br)cc(Br)c(C)c32)c1` [10728/H02] reads 25.8%.
Take `COc1cccc(OC)c1C=C1C(=O)Nc2c(Br)cc(Br)c(C)c21` [10728/H03]: the “Met Kinase % Inhibition (P.130)” value is reported as 15.6%.
The result for `COc1cc(C=C2C(=O)Nc3c(Br)cc(Br)c(C)c32)cc(OC)c1` [10728/H04] reads 32.9%.
As to `COc1cc(N(C)C)ccc1C=C1C(=O)Nc2c(Br)cc(Br)c(C)c21` [10728/H05], the “Met Kinase % Inhibition (P.130)” value is 41.2% and 33.9%.
`Cc1c(Br)cc(Br)c2c1C(=Cc1ccc3c(c1)Cc1ccccc1-3)C(=O)N2` [10728/H06]: the “Met Kinase % Inhibition (P.130)” value was found to be 28.5%.
The result for `Cc1c(Br)cc(Br)c2c1C(=Cc1cccc(C(F)(F)F)c1F)C(=O)N2` [10728/H07] reads 45.8%; that for `Cc1c(Br)cc(Br)c2c1C(=Cc1c(F)cccc1C(F)(F)F)C(=O)N2` [10728/H09], 30.5%; that for `Cc1c(Br)cc(Br)c2c1C(=Cc1ccccc1OCC(=O)O)C(=O)N2` [10728/H10], 65.2%.
`COc1cc(C=C2C(=O)Nc3c(Br)cc(Br)c(C)c32)cc2c1OCO2` [10728/H11]: the “Met Kinase % Inhibition (P.130)” value came out at 8.0%.
Consider `COc1ccc2ccccc2c1C=C1C(=O)Nc2c(Br)cc(Br)c(C)c21` [10729/H02], for which the “Met Kinase % Inhibition (P.130)” value is recorded as 25.5%.
Take `COc1ccc(C=C2C(=O)Nc3c(Br)cc(Br)c(C)c32)c2ccccc12` [10729/H03]: the “Met Kinase % Inhibition (P.130)” value was 2.8%.
In the case of `CSc1ccc(C=C2C(=O)Nc3c(Br)cc(Br)c(C)c32)cc1` [10729/H04], the “Met Kinase % Inhibition (P.130)” value worked out at 25.1%.
Regarding `Cc1ccsc1C=C1C(=O)Nc2c(Br)cc(Br)c(C)c21` [10729/H05], the “Met Kinase % Inhibition (P.130)” value stood at 27.9%.
Take `Cc1c(Br)cc(Br)c2c1C(=Cc1cccc(Oc3ccccc3)c1)C(=O)N2` [10729/H06]: the “Met Kinase % Inhibition (P.130)” value was 28.4%.
The same measure for `Cc1c(Br)cc(Br)c2c1C(=Cc1ccccn1)C(=O)N2` [10729/H07]: 81.0%; for `Cc1c(Br)cc(Br)c2c1C(=Cc1cccnc1)C(=O)N2` [10729/H08]: 44.0%.
The result for `Cc1c(Br)cc(Br)c2c1C(=Cc1ccncc1)C(=O)N2` [10729/H09] reads 45.1%.
`Cc1c(Br)cc(Br)c2c1C(=Cc1ccc(N3CCCC3)cc1)C(=O)N2` [10729/H10]: the “Met Kinase % Inhibition (P.130)” value is listed as 12.8%.
As to `Cc1c(Br)cc(Br)c2c1C(=CC1C=CCCC1)C(=O)N2` (stereo not drawn) [10729/H11], the “Met Kinase % Inhibition (P.130)” value is 36.1%.
For the molecule `COc1ccc(C=C2C(=O)Nc3c(Br)cc(Br)c(C)c32)c(OC)c1OC` [10730/H02], the “Met Kinase % Inhibition (P.130)” value came to 32.0%.
In the case of `COc1cc(OC)c(OC)cc1C=C1C(=O)Nc2c(Br)cc(Br)c(C)c21` [10730/H03], the “Met Kinase % Inhibition (P.130)” value is given as 28.3%.
For the molecule `COc1cc(C=C2C(=O)Nc3c(Br)cc(Br)c(C)c32)cc(OC)c1OC` [10730/H04], the “Met Kinase % Inhibition (P.130)” value worked out at 37.1%.
As to `CC(=O)n1cc(C=C2C(=O)Nc3c(Br)cc(Br)c(C)c32)c2ccccc21` [10730/H05], the “Met Kinase % Inhibition (P.130)” value is 30.7%.
With `Cc1c(Br)cc(Br)c2c1C(=Cc1ccc(-c3ccccc3Cl)o1)C(=O)N2` [10730/H07], the “Met Kinase % Inhibition (P.130)” value amounted to 38.7%.
